Test results as given in patent US20230226198A1, “Artemisinin Derivatives” (DA ZEN THERANOSTICS, INC., priority 2019, published 2023).
Like-named read-outs stand apart in the source and are kept apart here.

How the values were obtained:
Assay type in all cases: cell-based
BxPC3 cells = assay: MTT cell viability / IC50 assay, BxPC3; details: Homo sapiens, BXPC-3; BxPC3, 48 h
Method: (§1) Cell culture: In the following examples, unless otherwise specified, all cell lines are purchased from American Type Culture Collection and cultured in American Type Culture Collection (ATCC)-recommended media, with fetal bovine serum (FBS) to a final concentration of 10% and 1× penicillin/streptomycin at 37° C. with 5% CO2 in a cell culture incubator, unless otherwise specified. Unless otherwise specified, culture is 2D. Where culture is 3D, low attachment plates are used, with the same media. C4-2B (ATCC® CRL-3315™, human prostate cancer cells of epithelial morphology) parental cell line and drug-resistant cells derived therefrom) are cultured in RPMI-1640 with 10% FBS. MDVR cells (an Enzalutamide-resistant variety of C4-2B prostate cancer cells formed as described below) are cultured as indicated for the parental C4-2B cells. Caki-1 cells (human clear cell renal cell carcinoma cells) are cultured in ATCC-formulated McCoy's 5a Medium Modified (ATCC Catalog No. 30-2007) with 10% FBS. […]
(§2) Each of the cell lines is treated either with a THAD (e.g. DZ-DHA-ether, MI-148-bis-DHA), or for comparison, with the DHA mono-ester “DZ-DHA”; alternatively/additionally, DZ1 and/or unconjugated DHA may serve as comparants. […] The absorbance density of the supernatant is read on a 96-well microplate reader at wavelength 595 nm. […]

DU145 cells = assay: MTT cell viability / IC50 assay, DU145; details: Homo sapiens, DU-145; DU145, 48 h
Method: as §1, §2

C4-2B cells = assay: MTT cell viability / IC50 assay, C4-2B; details: Homo sapiens, 48 h
Method: as §1, §2

H358 cells = assay: MTT cell viability / IC50 assay, H358; details: Homo sapiens, NCI-H358, 48 h
Method: as §1, §2

[1] = system: MDVR cells (Enzalutamide-resistant C4-2B prostate cancer cells); assay: MTT cell viability / IC50 assay, MDVR; details: Homo sapiens
Method: Cell culture: In the following examples, unless otherwise specified, all cell lines are purchased from American Type Culture Collection and cultured in American Type Culture Collection (ATCC)-recommended media, with fetal bovine serum (FBS) to a final concentration of 10% and 1× penicillin/streptomycin at 37° C. with 5% CO2 in a cell culture incubator, unless otherwise specified. Unless otherwise specified, culture is 2D. Where culture is 3D, low attachment plates are used, with the same media. C4-2B (ATCC® CRL-3315™, human prostate cancer cells of epithelial morphology) parental cell line and drug-resistant cells derived therefrom) are cultured in RPMI-1640 with 10% FBS. MDVR cells (an Enzalutamide-resistant variety of C4-2B prostate cancer cells formed as described below) are cultured as indicated for the parental C4-2B cells. Caki-1 cells (human clear cell renal cell carcinoma cells) are cultured in ATCC-formulated McCoy's 5a Medium Modified (ATCC Catalog No. 30-2007) with 10% FBS. PC3 cells (ATCC® CRL-1435™, a human prostate cancer cell line of epithelial morphology initiated from a bone metastasis of a grade IV prostatic adenocarcinoma) are cultured in F-12K with 10% FBS. 22RV1 Prostate Cancer (PC) cells (ATCC® CRL-2505™, a human prostate carcinoma cell line of epithelial morphology) are cultured in RPMI-1640 with 10% FBS. DU145 cells (ATCC® HTB-81™, a human cell line derived from a prostate-originating brain metastase, not detectably hormone sensitive, not expressing prostate antigen; forms adenocarcinoma grade II in nude mice) are cultured in ATCC-formulated Eagle's Minimum Essential Medium (EMEM, Catalog No. 30-2003). H446 cells (ATCC® HTB-171™, a human small cell carcinoma SC lung cancer (SCLC) cell line derived from a metastatic site) are cultured in RPMI-1640 with 10% FBS. H358 cells (ATCC® CRL-5807™, a human non-small cell lung cancer (NSCLC) cell line that expresses protein and RNA of SP-A, the major lung surfactant associated protein, and produces tumors in athymic nude mice) are cultured in RPMI-1640 Medium with 10% FBS. BxPC3 cells (ATCC® CRL-1687™, an adenocarcinoma-derived pancreatic cancer cell line that expresses pancreas cancer specific antigen and carcinoembryonic antigen and forms tumors in nude mice) are cultured in RPMI-1640 with 10% FBS.
Resistant prostate cancer cell lines MDVR and AbiR: MDVR cells are Enzalutamide-resistant cells, AbiR are Abiraterone acetate resistant cells, formed from parental C4-2B prostate cancer cells as follows. A cell assay is performed exposing cells cultured as described above to various drugs indicated below for 72 hours. Parental C4-2B cells are C4-2B non-resistant cells not previously exposed to cancer drugs. Drug-resistant C4-2B cells are created by prolonged exposure to the relevant drug, i.e. Enzalutamide for MDVR, and Abiraterone acetate for AbiR cells, at initially sub-lethal and gradually increasing concentrations until resistance is achieved.
Example 1: A cell assay is performed exposing cells cultured as described above to various drugs indicated below for 24 hours unless otherwise indicated. Each of the cell lines is treated either with a THAD (e.g. DZ-DHA-ether, MI-148-bis-DHA), or for comparison, with the DHA mono-ester “DZ-DHA”; alternatively/additionally, DZ1 and/or unconjugated DHA may serve as comparants. For each cell line, the IC50 is determined for each drug in concentrations from 0 to 100 μM. […] In the controls (not shown in the figures), the cells are exposed to DMSO (vehicle) for a final concentration that equals the highest concentration of the drug tested, to a maximum concentration less than 0.1% v/v. 4 hours before culture end/SDS addition, 10 μL MTT (3-(4,5-Dimethyl-2-thiazolyl)-2,5-diphenyl-2H-tetrazolium bromide, Sigma-Aldrich) is added to wells containing the cells. At the end of culture, 100 μl 10% SDS is added and then the plate containing the cells is placed in a 37° C. cell culture incubator for 8 hours. […]

| Compound | IC50 (BxPC3 cells) | IC50 (DU145 cells) | IC50 (C4-2B cells) | IC50 (H358 cells) | IC50 ([1]; ENZ-resistant C4-2B cells (MDVR), unit inferred, read-out: IC50 (FIG. 2B description)) | IC50 ([1]; MDVR, 24 hours, relative IC50, read-out: IC50) | IC50 ([1]; MDVR, 48 h, read-out: IC50) |
| --- | --- | --- | --- | --- | --- | --- | --- |
| C[C@@H]1CC[C@H]2[C@@H](C)C(OC(=O)CCCCCN3/C(=C/C=C4\CCCC(/C=C/C5=[N+](CCCCS(=O)(=O)[O-])c6ccccc6C5(C)C)=C4Cl)C(C)(C)c4ccccc43)O[C@@H]3OC4(C)CC[C@@H]1[C@]32OO4 (stereo in doubt) [DZ3a] | 9.8 µM | 8.1 µM | 5 µM | 2.6 µM | 3.8 µM | 3.8 to 5.9 µM | 5.9 µM |
| C[C@H]1[C@@H](O)O[C@@H]2O[C@@]3(C)CC[C@H]4[C@H](C)CC[C@@H]1[C@@]24OO3 [DHA, dihydroartemisinin] | 50.7 µM | 295 µM | 188 µM | 7.32 µM | – | – | 390 µM |
